Measured values published in patent US20200181117A1, “SUBSTITUTED 3-HETEROARYLOXY-1H-PYRAZOLES AND SALTS THEREOF AND THEIR USE AS HERBICIDAL ACTIVE SUBSTANCES” (BAYER CROPSCIENCE AKTIENGESELLSCHAFT, priority 2017, published 2020).

Key:
Assay type in all cases: in vivo
Amaranthus retroflexus [1] = assay: Post-emergence herbicidal action; details: 1280 g/ha, rated visually after about 3 weeks vs untreated controls
Summary of the method: (§1)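 Visual rating against untreated plants, about 3 weeks post-treatment, on a 0-100% scale where 100% means plant death. Treatment: 1280 g/ha of WP/EC preparations with 0.5% additive in 600 l/ha water, sprayed on one-leaf-stage weeds grown in greenhouse sandy loam.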

Veronica persica [2] = assay: Post-emergence herbicidal action; details: 1280 g/ha, rated visually after about 3 weeks vs untreated controls
Summary of the method: as §1

Viola tricolor [3] = assay: Post-emergence herbicidal action; details: 1280 g/ha, rated visually after about 3 weeks vs untreated controls
Summary of the method: as §1

Amaranthus retroflexus [4] = assay: Pre-emergence herbicidal action; details: 1280 g/ha, scored visually after about 3 weeks vs untreated controls
Summary of the method: (§2)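 Visual percentage damage relative to untreated controls, scored about 3 weeks after treatment (100% = plants died, 0% = like controls). Compounds were applied at 1280 g/ha to the covering soil over sown seeds as aqueous suspension or emulsion containing 0.5% additive.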

Polygonum convolvulus [5] = assay: Pre-emergence herbicidal action; details: 1280 g/ha, scored visually after about 3 weeks vs untreated controls
Summary of the method: as §2

Setaria viridis [6] = assay: Pre-emergence herbicidal action; details: 1280 g/ha, scored visually after about 3 weeks vs untreated controls
Summary of the method: as §2

Stellaria media [7] = assay: Pre-emergence herbicidal action; details: 1280 g/ha, scored visually after about 3 weeks vs untreated controls
Summary of the method: as §2

Viola tricolor [8] = assay: Pre-emergence herbicidal action; details: 1280 g/ha, scored visually after about 3 weeks vs untreated controls
Summary of the method: as §2

Alopecurus myosuroides [9] = assay: Post-emergence herbicidal action; details: 1280 g/ha, rated visually after about 3 weeks vs untreated controls
Summary of the method: as §1

Polygonum convolvulus [10] = assay: Post-emergence herbicidal action; details: 1280 g/ha, rated visually after about 3 weeks vs untreated controls
Summary of the method: as §1

Setaria viridis [11] = assay: Post-emergence herbicidal action; details: 1280 g/ha, rated visually after about 3 weeks vs untreated controls
Summary of the method: as §1

Stellaria media [12] = assay: Post-emergence herbicidal action; details: 1280 g/ha, rated visually after about 3 weeks vs untreated controls
Summary of the method: as §1

Abutilon theophrasti [13] = assay: Pre-emergence herbicidal action; details: 1280 g/ha, scored visually after about 3 weeks vs untreated controls
Summary of the method: as §2

Alopecurus myosuroides [14] = assay: Pre-emergence herbicidal action; details: 1280 g/ha, scored visually after about 3 weeks vs untreated controls
Summary of the method: as §2

Echinochloa crus-galli = assay: Pre-emergence herbicidal action; details: 1280 g/ha, scored visually after about 3 weeks vs untreated controls
Summary of the method: as §2

Veronica persica [15] = assay: Pre-emergence herbicidal action; details: 1280 g/ha, scored visually after about 3 weeks vs untreated controls
Summary of the method: as §2

Abutilon theophrasti [16] = assay: Post-emergence herbicidal action; details: 1280 g/ha, rated visually after about 3 weeks vs untreated controls
Summary of the method: as §1

Pharbitis purpurea = assay: Post-emergence herbicidal action; details: 1280 g/ha, rated visually after about 3 weeks vs untreated controls
Summary of the method: as §1

Avena fatua = assay: Pre-emergence herbicidal action; details: 1280 g/ha, scored visually after about 3 weeks vs untreated controls
Summary of the method: as §2

Hordeum murinum = assay: Pre-emergence herbicidal action; details: 1280 g/ha, scored visually after about 3 weeks vs untreated controls
Summary of the method: as §2

Lolium rigidum = assay: Pre-emergence herbicidal action; details: 1280 g/ha, scored visually after about 3 weeks vs untreated controls
Summary of the method: as §2

Matricaria inodora = assay: Pre-emergence herbicidal action; details: 1280 g/ha, scored visually after about 3 weeks vs untreated controls
Summary of the method: as §2

SMILES | herbicidal activity on Amaranthus retroflexus (Amaranthus retroflexus [1]) | herbicidal activity on Veronica persica (Veronica persica [2]) | herbicidal activity on Viola tricolor (Viola tricolor [3]) | herbicidal activity on Amaranthus retroflexus (Amaranthus retroflexus [4]) | herbicidal activity on Polygonum convolvulus (Polygonum convolvulus [5]) | herbicidal activity on Setaria viridis (Setaria viridis [6]) | herbicidal activity on Stellaria media (Stellaria media [7]) | herbicidal activity on Viola tricolor (Viola tricolor [8]) | herbicidal activity on Alopecurus myosuroides (Alopecurus myosuroides [9]) | herbicidal activity on Polygonum convolvulus (Polygonum convolvulus [10]) | herbicidal activity on Setaria viridis (Setaria viridis [11]) | herbicidal activity on Stellaria media (Stellaria media [12]) | herbicidal activity on Abutilon theophrasti (Abutilon theophrasti [13]) | herbicidal activity on Alopecurus myosuroides (Alopecurus myosuroides [14]) | herbicidal activity on Echinochloa crus-galli (Echinochloa crus-galli) | herbicidal activity on Veronica persica (Veronica persica [15]) | herbicidal activity on Abutilon theophrasti (Abutilon theophrasti [16]) | herbicidal activity on Avena fatua (Avena fatua) | herbicidal activity on Matricaria inodora (Matricaria inodora) | further results
CC(C)n1cc(Sc2ccc(F)cc2)c(Oc2ncc(Cl)cn2)n1 [Example I-137] | 80% | 90% | 100% | 100% | 100% | 100% | 100% | 100% | – | – | – | – | – | – | – | – | – | – | – | –
Cn1cc(Sc2ccccc2)c(Oc2ncc(Cl)cn2)n1 [Example I-120] | 80% | 80% | 100% | 80% | 80% | – | 100% | 100% | 90% | 100% | 80% | 90% | 100% | 90% | 100% | 100% | – | – | – | –
CCc1c(Sc2ccccc2)c(Oc2ncc(F)cn2)nn1C [Example I-155] | 100% | 100% | 100% | 100% | – | 100% | 100% | 100% | 90% | – | 80% | 90% | 100% | 100% | 90% | – | 80% | 100% | 100% | herbicidal activity on Pharbitis purpurea (Pharbitis purpurea): 80%; herbicidal activity on Hordeum murinum (Hordeum murinum): 100%; herbicidal activity on Lolium rigidum (Lolium rigidum): 80%
Cn1cc(Sc2ccc(Cl)cc2)c(Oc2ncc(Cl)cn2)n1 [Example I-188] | 100% | 100% | – | 100% | – | 100% | 90% | 100% | – | – | – | – | – | – | 80% | – | – | – | – | –
Cc1c(Sc2ccc(F)cc2)c(Oc2ncccn2)nn1C [Example I-087] | 100% | 100% | 100% | 100% | 90% | 100% | – | 100% | 90% | 100% | 90% | 100% | 100% | – | 80% | 100% | 80% | 80% | 90% | herbicidal activity on Pharbitis purpurea (Pharbitis purpurea): 80%
Cn1cc(Sc2ccccc2)c(Oc2ncccn2)n1 [Example I-067] | – | 100% | 80% | 100% | 90% | 100% | 90% | 100% | – | 90% | – | 90% | 90% | 90% | 90% | 100% | – | – | 100% | –
CCc1c(Sc2ccc(F)cc2F)c(Oc2ncccn2)nn1C [Example I-136] | 100% | 100% | 100% | 100% | 100% | 100% | 100% | 100% | – | – | – | 90% | 100% | 100% | 90% | – | 90% | 90% | 100% | herbicidal activity on Lolium rigidum (Lolium rigidum): 100%
CCc1c(Sc2ccc(Cl)cc2)c(Oc2ncccn2)nn1C [Example I-058] | 80% | 90% | – | 100% | – | – | 90% | 80% | – | – | – | 100% | – | – | – | – | – | – | – | –
Cc1c(Sc2cccc(C(F)(F)F)c2)c(Oc2ncccn2)nn1C [Example I-142] | 90% | 80% | – | 90% | 100% | 100% | 90% | 100% | – | – | – | – | – | 80% | – | 90% | 80% | – | – | –
Cn1cc(Sc2ccc(F)cc2)c(Oc2ncccn2)n1 [Example I-032] | 90% | 90% | – | 80% | – | – | – | – | – | 90% | – | 100% | – | – | – | 90% | – | – | 90% | –
